Measured values from BigSolDB 2.1.

CC(C)OC(=O)[C@H](C)N[P@](=O)(OC[C@H]1O[C@@H](n2ccc(=O)[nH]c2=O)[C@](C)(F)[C@@H]1O)Oc1ccccc1
solubility (mole fraction)
Settings	278.15 K	283.15 K	288.15 K	293.15 K	298.15 K	303.15 K	308.15 K	313.15 K	318.15 K
in acetone	0.0275	0.0343	0.0435	0.0538	0.066	0.0796	0.0951	0.113	0.134
in acetonitrile	0.00484	0.00629	0.00812	0.0101	0.0127	0.0156	0.019	0.0234	0.0286
in cyclohexane	–	6.09e-07	9.4e-07	1.44e-06	2.09e-06	3.05e-06	4.33e-06	6.11e-06	8.66e-06
in ethanol	0.022	0.0274	0.0342	0.0416	0.0505	0.0599	0.0712	0.0842	0.0997
in ethyl acetate	0.00263	0.00362	0.00486	0.00641	0.0084	0.0108	0.0139	0.0178	0.0228
in n-butanol	0.00935	0.0116	0.0144	0.0182	0.0225	0.0278	0.034	0.0413	0.0501
in toluene	4.46e-06	7.43e-06	1.1e-05	1.75e-05	2.67e-05	4.02e-05	6.15e-05	9.44e-05	0.000144
in water	1.18e-05	1.85e-05	2.59e-05	3.65e-05	5.05e-05	7.02e-05	9.6e-05	0.000131	0.00017
